Reference: patent publication US20050222218A1, “Screening method and compounds for treating friedreich ataxia” (priority 2002, published 2005)
pEC50: −log10 of the molar value. Entries after “also recorded” stand apart in the source; their conditions may differ. Like-named read-outs stand apart in the source and are kept apart here.

Assays:
Format in all cases: cell-based, human
[1] = test system: control fibroblasts; assay: BSO sensitivity of control fibroblasts (cell viability)
Procedure: (§1) Friedreich Ataxia primary culture fibroblast cell lines F1 and control fibroblast line C1 were provided by the Insel-Spital Bern (Switzerland), FRDA line F3 was provided by Hopital Necker, Paris (France), FRDA lines F2 and control lines C2 and C3 were obtained from Coriell Cell Repositories (Camden, N.J.; catalog numbers GM04078, GM08402 and GM08399 respectively). Cells were grown in a humidified atmosphere supplemented with 5% CO2. […]
(§2) The cells were seeded in 96-well plates at a density of 4000 cells/well. […] Cell viability was measured when the first signs of toxicity appeared in the controls (typically after 12 to 48 h). […] The plates were washed twice with PBS and fluorescence intensity was measured with a Gemini Spectramax XS spectrofluorimeter (Molecular Devices, Sunnyvale, Calif.) using excitation and emission wavelengths of 485 nm and 525 nm respectively. Live cells imaging was performed with a Zeiss Axiovert 135M fluorescence microscope equipped with a cooled CCD camera (Sensicam, PCO Computer Optics, Kelheim, FRG). […]

[2] = test system: intracellular GSH in control and FRDA cells; assay: Intracellular glutathione content (monochlorobimane method)
Procedure: (§3) Control and FRDA cells (5×10^5 cells grown in 10 cm dishes) were preincubated with sodium selenite (500 nM) for 24 hours and then subjected to 1 mM BSO treatment for 24 hours. Total cell extracts were used to measure glutathione content, glutathione peroxidase activity and glutathione-S-transferase activity.
To determine the glutathione content, cells were trypsinized, washed twice with PBS and snap frozen in 100 μl PBS. Cells were lysed in PBS supplemented with a protease inhibitor cocktail (Complete, Roche Diagnostics, Rotkreuz, Switzerland) by 4 freeze/thaw cycles. Total protein content was measured with the BioRad protein assay (BioRad, Hercules, Calif.) using calibrated bovine serum albumin solutions as standards (Pierce). Reduced glutathione content was measured essentially as described (Kamencic, H., et al., Monochlorobimane fluorometric method to measure tissue glutathione, Anal Biochem, 286, 35-7., (2000)) with a final monochlorobimane (mClB) (Molecular Probes, Eugene, Oreg.) concentration of 25 μM. The GSH-mClB adduct fluorescence was measured with a Gemini spectrofluorimeter using excitation and emission wavelengths of 380 nm and 470 nm respectively. Known amounts of reduced glutathione were used as standards.

[3] = test system: FRDA fibroblasts; assay: BSO sensitivity of FRDA fibroblasts (cell viability)
Procedure: as §1, §2

[4] = test system: GST activity in control cells; assay: Glutathione-S-transferase activity in control cell extracts; conditions: 500 nM sodium selenite or 1 mM BSO
Procedure: as §3
(§4) To determine the glutathione peroxidase activity, cell extracts obtained for total GSH measurements were adjusted with PBS to a final protein concentration of 1.85 mg/ml. Enzymatic activity was measured with the Glutathione peroxidase cellular activity assay kit (Sigma, St Louis, Mo.) essentially according to the instructions of the manufacturer: Enzymatic activity was measured with 40 μg total protein extract in a final reaction volume of 100 μl. NADPH consumption was measured by the decrease in NADPH fluorescence at 445 nm. […] Glutathione-S-transferase activity was determined in the same way as the glutathione content, except that the assay was performed in the presence of an excess of glutathione (1 mM) instead of an excess of exogenous glutathione-S-transferase. Because the BSO treatment is known to deplete cellular (GSH) levels, intracellular GSH concentrations were measured first. […] Oxidized glutathione is reduced by an excess exogenous glutathione reductase that will consume a corresponding amount of NADPH that is then measured by fluorescence. […]

[5] = test system: GPX enzymatic activity in control cells; assay: Glutathione peroxidase activity in control cell extracts
Procedure: as §3
(§5) To determine the glutathione peroxidase activity, cell extracts obtained for total GSH measurements were adjusted with PBS to a final protein concentration of 1.85 mg/ml. Enzymatic activity was measured with the Glutathione peroxidase cellular activity assay kit (Sigma, St Louis, Mo.) essentially according to the instructions of the manufacturer: Enzymatic activity was measured with 40 μg total protein extract in a final reaction volume of 100 μl. NADPH consumption was measured by the decrease in NADPH fluorescence at 445 nm. All measurements were done in triplicate in 96-well plates with a Gemini spectrofluorimeter using excitation and emission wavelengths of 340 nm and 445 nm respectively. Glutathione-S-transferase activity was determined in the same way as the glutathione content, except that the assay was performed in the presence of an excess of glutathione (1 mM) instead of an excess of exogenous glutathione-S-transferase. Because the BSO treatment is known to deplete cellular (GSH) levels, intracellular GSH concentrations were measured first. Any difference in basal glutathione levels between the two cell lines that were tested were not observed (FIG. 4, panel A). […] (FIG. 4, panel A). From this, it was concluded that the GSH levels per se are not responsible for the observed difference in phenotype between the two cell types. […] Therefore, GPX enzymatic activity in extracts from both cell types was compared. This measurement is based on the recycling of oxidized glutathione generated by GPX, using tert-butyl hydroperoxide as substrate. Oxidized glutathione is reduced by an excess exogenous glutathione reductase that will consume a corresponding amount of NADPH that is then measured by fluorescence. […]

[6] = test system: GPX enzymatic activity in FRDA cells; assay: Glutathione peroxidase activity in FRDA cell extracts
Procedure: as §3, §5

[7] = test system: FRDA fibroblasts; assay: Rescue of FRDA fibroblasts from BSO-induced cell death (CalceinAM/ethidium homodimer cell viability)
Procedure: Friedreich Ataxia primary culture fibroblast cell lines F1 and control fibroblast line C1 were provided by the Insel-Spital Bern (Switzerland), FRDA line F3 was provided by Hopital Necker, Paris (France), FRDA lines F2 and control lines C2 and C3 were obtained from Coriell Cell Repositories (Camden, N.J.; catalog numbers GM04078, GM08402 and GM08399 respectively). Cells were grown in a humidified atmosphere supplemented with 5% CO2. For experiments, the cells were trypsinized and resuspended at a density of 40000 cells/ml in growth medium consisting of 25% (v/v) M199 EBS and 64% (v/v) MEM EBS without phenol red (Bioconcept, Allschwil, Switzerland) supplemented with 10% (v/v) fetal calf serum (PAA Laboratories, Linz, Austria), 100 U/ml penicillin, 100 μg/ml streptomycin (PAA Laboratories, Linz, Austria), 10 μg/ml insulin (Sigma, Buchs, Switzerland), 10 ng/ml EGF (Sigma, Buchs, Switzerland) and 10 ng/ml bFGF (PreproTech, Rocky Hill, N.J.) and 2 mM glutamine (Sigma, Buchs, Switzerland).
The cells were seeded in 96-well plates at a density of 4000 cells/well. They were incubated in the presence of various concentrations of L-buthionine-(S,R)-sulfoximine (BSO), an inhibitor of γ-glutamyl cysteine synthase (EC: 6.3.2.2), the rate limiting enzyme in the biosynthesis of glutathione. Cell viability was measured when the first signs of toxicity appeared in the controls (typically after 12 to 48 h). The cells were stained for 60 min at room temperature in PBS with 1.2 μM CalceinAM and 4 μM Ethidium homodimer (Live/Dead assay, Molecular Probes, Eugene, Oreg.). The plates were washed twice with PBS and fluorescence intensity was measured with a Gemini Spectramax XS spectrofluorimeter (Molecular Devices, Sunnyvale, Calif.) using excitation and emission wavelengths of 485 nm and 525 nm respectively. Live cells imaging was performed with a Zeiss Axiovert 135M fluorescence microscope equipped with a cooled CCD camera (Sensicam, PCO Computer Optics, Kelheim, FRG). Image acquisition was performed with the ImagePro Plus software (Media Cybermetics, Silver Spring, Md.).
[…] Cell viability was measured as described in Example 2.
Cell viability was measured after a further 48 hours incubation as described in Example 2. EC50 values were deduced from the dose-response curves. The natural CoQ10 was not active in this assay (Table 1). However, a possible bioavailability problem with this molecule due to its 50 carbon atom side chain can not be ruled out. CoQ1 had EC50 values similar to Idebenone (0.2 μM). CoQ2 performed better than Idebenone, with an EC50 value of 30 nM. […] Decylubiquinone was almost as effective as CoQ2, with an EC50 of 40 nM.
FRDA cells were incubated with increasing concentrations of sodium selenite (prepared as a stock solution 5 mM in PBS) for 24 hours, then subjected to BSO stress. Cell viability was measured as described in Example 2.
Based on the previous results, the hypothesis whether small-molecules GPX mimetics could rescue the cell death phenotype of FRDA cells when exposed to BSO was tested. FRDA cells were incubated for 24 hours in the presence of Ebselen, a GPX mimetic (Muller, A., et al., “A novel biologically active seleno-organic compound—I. Glutathione peroxidase-like activity in vitro and antioxidant capacity of PZ 51 (Ebselen)”, Biochem Pharmacol, 33, 3235-9., (1984)) and then subjected to 1 mM BSO treatment.
FRDA cells were incubated in the presence of a number of GPX mimetics. Two classes of molecules (FIG. 7) were evaluated: monoselenides (compound number 4, 5 and 8) and diselenides (compound number 1-3, 6, 7, 9-16). Dose-response curves were obtained for each molecule. From the dose-response curves not only the EC50, but also the concentration range for which a molecule produced at least 50% cell survival upon BSO challenge was calculated (FIG. 8).
GPX mimetics were tested as described in Example 3. Dose-response curves were obtained for all compounds tested. […]

[8] = test system: GST activity in FRDA cells; assay: Glutathione-S-transferase activity in FRDA cell extracts; conditions: 500 nM sodium selenite
Procedure: as §3, §4

[9] = test system: FRDA fibroblasts; assay: Rescue of FRDA fibroblasts from BSO-induced cell death (CalceinAM/ethidium homodimer cell viability); conditions: no preincubation
[10] = Homo sapiens, Fibroblast, Table 1, 24 h preincubation, 1 mM BSO, viability after further 48 h, read-out: EC50
[11] = FRDA cells preincubated 24 h with compound, then 1 mM BSO, read-out: EC50 value, prevention of cell death
[12] = 500 nM sodium selenite, then 1 mM BSO

CCCCS(=N)(=O)CCC(N)C(=O)O [BSO, L-buthionine-(S,R)-sulfoximine]
viability compared to untreated controls (average) ([1]; 1 mM BSO, control cell lines C1-C3): 60% | BSO concentration giving slight decrease in cell density ([1]; overnight exposure): 100 µM | effect of BSO on glutathione levels ([2]; 1 mM BSO 24 h, both cell types): reduction in glutathione levels | viability compared to untreated controls ([3]; 1 mM BSO, FRDA cell lines F1-F3): less than 10% | BSO concentration giving marked reduction in cell titer ([3]; overnight exposure): 4 µM | effect on GST activity [4]: neither modulated | effect of BSO on GPX enzyme activity ([5]; 1 mM BSO 24 h, no selenium): small decrease in enzyme activity | effect of BSO on GPX enzyme activity ([6]; 1 mM BSO 24 h, no selenium): small decrease in enzyme activity

COC1=C(OC)C(=O)C(C/C=C(\C)CCC=C(C)C)=C(C)C1=O [CoQ2]
pEC50 ([7]; FRDA cells preincubated 24 h with compound, then 1 mM BSO, viability after further 48 h, read-out: EC50 value, rescue of FRDA cell death): 7.52

COC1=C(OC)C(=O)C(CCCCCCCCCCO)=C(C)C1=O [Idebenone, 2,3-dimethoxy-5-methyl-6(10-hydroxydecyl)-1,4-benzoquinone]
rescue effect at the highest concentration tested ([7]; 50 μM compound, 1 mM BSO): slightly diminished | appearance of treated cells upon microscopic examination ([7]; 1 mM BSO + 5 μM Idebenone, CalceinAM/ethidium homodimer): undistinguishable from untreated cells | concentration at which full rescue was observed ([7]; 24 h preincubation, 1 mM BSO): 2 µM | pEC50 ([7]; Homo sapiens, Fibroblast, FRDA cells preincubated 24 h with compound, then 1 mM BSO, read-out: EC50 value, prevention of cell death): 6.30 | pEC50 [7, 10]: 6.30

Vitamin E
pEC50 [7, 11]: 6.15

CoQ1
pEC50 [7, 11]: 6.70

COC1=C(OC)C(=O)C(C)=CC1=O [CoQ0]
activity in rescuing FRDA cells from BSO (in words) ([7]; 24 h preincubation, 1 mM BSO): inactive; also recorded: not active

COC1=C(OC)C(=O)C(C/C=C(\C)CC/C=C(\C)CC/C=C(\C)CC/C=C(\C)CC/C=C(\C)CC/C=C(\C)CC/C=C(\C)CC/C=C(\C)CC/C=C(\C)CCC=C(C)C)=C(C)C1=O [CoQ10]
activity in rescuing FRDA cells from BSO (in words) ([7]; 24 h preincubation, 1 mM BSO): not active; also recorded: did not reach the 50% cell viability rescue | pEC50 ([7]; Table 1, 24 h preincubation, 1 mM BSO, viability after further 48 h, read-out: EC50): < 4.30

Cc1c(C)c2c(c(C)c1O)CCC(C)(C(=O)O)O2 (stereo not shown) [Trolox, 6-hydroxy-2,5,7,8-tetramethylchroman-2-carboxylic acid]
viability at 25 µM ([7]; Homo sapiens, Fibroblast, read-out: cell viability preserved): 60% | cell viability ([7]; concentrations higher than 25 μM, 1 mM BSO): 55%

O=[Se]([O-])[O-].[Na+].[Na+] [sodium selenite]
effect of selenium preincubation on BSO glutathione depletion ([2]; 500 nM sodium selenite 24 h, then 1 mM BSO 24 h): did not prevent the glutathione depletion | concentration that protected the cells fully ([7]; 24 h preincubation, then BSO): 200 nM | effect of concentrations higher than 200 nM ([7]; 24 h preincubation, then BSO): enhanced cell growth | effect on GST activity [8]: slightly reduces | protection when added at the same time as BSO [9]: did not protect | effect on GST activity [4]: neither modulated | effect on basal GPX activity ([5]; 500 nM sodium selenite, no BSO): not enhanced | effect on GPX activity under BSO treatment [5, 12]: prevented the enzyme activity loss | increase in basal GPX enzyme activity ([6]; 500 nM sodium selenite, no BSO): 50% | factor of increase in GPX activity [6, 12]: 3

CCCCCCCCCCC1=C(C)C(=O)C(OC)=C(OC)C1=O [Decylubiquinone, 2,3-Dimethoxy-5-methyl-6-decyl-1,4-benzoquinone]
working range (concentrations giving at least 50% cell viability) ([7]; 1 mM BSO): up to 3 orders of magnitude | pEC50 ([7]; Homo sapiens, Fibroblast, FRDA cells preincubated 24 h with compound, then 1 mM BSO, viability after further 48 h, read-out: EC50 value, rescue of FRDA cell death): 7.40 | pEC50 [7, 10]: 7.40
